# Data from ChEMBL document CHEMBL6109084 (Eur J Med Chem, 2025).
# Active and inactive are the calls of the source. No cut-off for these calls is given here.
# Key:
# [1] = test system: Plasma; assay: Anticoagulant activity in citrated human plasma assessed as prolongation of activated partial thromboplastin time at 1 uM incubated for 3 mins by aPTT reagent based automated coagulometric analysis relative to control; format: functional; conditions: 0.05 h
# [2] = test system: Plasma; assay: Anticoagulant activity in citrated human plasma assessed as prolongation of activated partial thromboplastin time incubated for 3 mins by aPTT reagent based automated coagulometric analysis; format: functional
# [3] = target: Plasminogen (Homo sapiens, UniProt P00747); assay: Inhibition of plasmin (unknown origin) using PyroGlu-Phe-Lys-pNA.HCl as substrate incubated for 30 mins followed by substrate addition and measured after 60 mins by microplate reader analysis
# [4] = target: Tissue-type plasminogen activator (Homo sapiens, UniProt P00750); assay: Inhibition of tPA (unknown origin) using H-D-Ile-Pro-Arg-pNA-2HCl as substrate incubated for 30 mins followed by substrate addition and measured after 60 mins by microplate reader analysis
# [5] = test system: HepG2; assay: Cytotoxicity against human HepG2 cells assessed as reduction in cell viability at 1 to 50 uM incubated for 24 hrs by MTT assay; format: toxicity, cell-based; conditions: hepg2, 24 h, dose 1-50 µM
# [6] = test system: HK-2; assay: Cytotoxicity against human HK-2 cells assessed as reduction in cell viability at 1 to 50 uM incubated for 24 hrs by MTT assay; format: toxicity, cell-based; conditions: hk-2, 24 h, dose 1-50 µM
# [7] = test system: Mus musculus; assay: Antithrombotic activity in FeCl3-induced carotid arterial thrombosis C57BL/6J mouse model assessed as increase in blood flow velocity at 10 mg/kg, po measured after 0.5 to 4 hrs; format: functional, organism-based; conditions: time 0.5-4 hrs
# [8] = test system: Mus musculus; assay: Antithrombotic activity in FeCl3-induced carotid arterial thrombosis C57BL/6J mouse model assessed as increase in blood flow velocity at 10 mg/kg, po measured after 2 to 4 hrs; format: functional, organism-based; conditions: time 2-4 hrs
# [9] = test system: Oryctolagus cuniculus; assay: Antithrombotic activity in FeCl3-induced carotid arterial thrombosis male New Zealand white rabbits model assessed as reduction in wet thrombus weight at 6 mg/kg, iv preincubated for 30 mins followed by FeCl3 application for 5 mins and measured after 30 mins relative to control; format: functional, organism-based; conditions: time 65.0 min
# [10] = Acute toxicity in C57BL/6J mouse assessed as anaphylaxis response at 60 to 100 mg/kg, po administered as single dose for 14 days; format: organism-based; conditions: in vivo, 336 h, dose 60-100 mg/kg, time 14 day
# [11] = Acute toxicity in C57BL/6J mouse assessed as allergic reactions at 60 to 100 mg/kg, po administered as single dose for 14 days; format: organism-based; conditions: in vivo, 336 h, dose 60-100 mg/kg, time 14 day
# [12] = Acute toxicity in C57BL/6J mouse assessed as pathological changes in liver at 60 to 100 mg/kg, po administered as single dose for 14 days by H and E staining based analysis; format: organism-based; conditions: in vivo, 336 h, dose 60-100 mg/kg, time 14 day
# [13] = Acute toxicity in C57BL/6J mouse assessed as pathological changes in spleen at 60 to 100 mg/kg, po administered as single dose for 14 days by H and E staining based analysis; format: organism-based; conditions: in vivo, 336 h, dose 60-100 mg/kg, time 14 day
# [14] = Acute toxicity in C57BL/6J mouse assessed as pathological changes in kidney at 60 to 100 mg/kg, po administered as single dose for 14 days by H and E staining based analysis; format: organism-based; conditions: in vivo, 336 h, dose 60-100 mg/kg, time 14 day
# [15] = Acute toxicity in C57BL/6J mouse assessed as effect on serum ALT level at 60 to 100 mg/kg, po administered as single dose for 14 days; format: organism-based; conditions: in vivo, 336 h, dose 60-100 mg/kg, time 14 day
# [16] = test system: Oryctolagus cuniculus; assay: Antithrombotic activity in FeCl3-induced carotid arterial thrombosis male New Zealand white rabbits model assessed as reduction in dry thrombus weight at 6 mg/kg, iv preincubated for 30 mins followed by FeCl3 application for 5 and measured after 45 mins relative to control; format: functional, organism-based; conditions: time 80.0 min
# [17] = test system: Plasma; assay: Anticoagulant activity in mouse plasma assessed as prolongation of activated partial thromboplastin time incubated for 3 mins by aPTT reagent based automated coagulometric analysis; format: functional; conditions: 0.05 h
# [18] = Selectivity index, ratio of IC50 for inhibition of FXIIa (unknown origin) using H-D-ProPhe-Arg-pNA.2HCl as substrate to IC50 for inhibition of human FXIa using p-Glu-Pro-Arg-pNA.HCl as substrate
# [19] = Selectivity index, ratio of IC50 for inhibition of thrombin (unknown origin) using H-D-Phe-Pip-Arg-pNA.2HCl as substrate to IC50 for inhibition of human FXIa using p-Glu-Pro-Arg-pNA.HCl as substrate
# [20] = Selectivity index, ratio of IC50 for inhibition of plasmin (unknown origin) using PyroGlu-Phe-Lys-pNA.HCl as substrate to IC50 for inhibition of human FXIa using p-Glu-Pro-Arg-pNA.HCl as substrate
# [21] = Selectivity index, ratio of IC50 for inhibition of trypsin (unknown origin) using Bz-Ile-Glu(gamma-OR)-Gly-Arg-pNA.HCl as substrate to IC50 for inhibition of human FXIa using p-Glu-Pro-Arg-pNA.HCl as substrate
# [22] = Selectivity index, ratio of IC50 for inhibition of chymotrypsin (unknown origin) using N-Suc-Ala-Ala-Pro-Phe-pNA as substrate to IC50 for inhibition of human FXIa using p-Glu-Pro-Arg-pNA.HCl as substrate
# [23] = Selectivity index, ratio of IC50 for inhibition of tPA (unknown origin) using H-D-Ile-Pro-Arg-pNA-2HCl as substrate to IC50 for inhibition of human FXIa using p-Glu-Pro-Arg-pNA.HCl as substrate
# [24] = test system: Mus musculus; assay: In vivo inhibition of FXIa in FeCl3-induced carotid arterial thrombosis C57BL/6J mouse model assessed as decrease in FXIa level in plasma at 5 to 30 mg/kg, po measured after 0.5 hrs by ELISA; format: functional, organism-based; conditions: dose 5-30 mg/kg
# [25] = Acute toxicity in C57BL/6J mouse assessed as effect on heart weight at 60 to 100 mg/kg, po measured after 24 hrs; format: organism-based; conditions: in vivo, dose 60-100 mg/kg
# [26] = Acute toxicity in C57BL/6J mouse assessed as effect on spleen weight at 60 to 100 mg/kg, po measured after 24 hrs; format: organism-based; conditions: in vivo, dose 60-100 mg/kg
# [27] = Acute toxicity in C57BL/6J mouse assessed as effect on kidney weight at 60 to 100 mg/kg, po measured after 24 hrs; format: organism-based; conditions: in vivo, dose 60-100 mg/kg
# [28] = physchem; conditions: aqueous medium, pH 7.4
# Description: Aqueous solubility of the compound in DMSO at pH 7.4 incubated for 12 hrs by turbidimetric based UV spectrophotometric analysis
# Chain of Plasminogen (P00747 97-580 limits assumed): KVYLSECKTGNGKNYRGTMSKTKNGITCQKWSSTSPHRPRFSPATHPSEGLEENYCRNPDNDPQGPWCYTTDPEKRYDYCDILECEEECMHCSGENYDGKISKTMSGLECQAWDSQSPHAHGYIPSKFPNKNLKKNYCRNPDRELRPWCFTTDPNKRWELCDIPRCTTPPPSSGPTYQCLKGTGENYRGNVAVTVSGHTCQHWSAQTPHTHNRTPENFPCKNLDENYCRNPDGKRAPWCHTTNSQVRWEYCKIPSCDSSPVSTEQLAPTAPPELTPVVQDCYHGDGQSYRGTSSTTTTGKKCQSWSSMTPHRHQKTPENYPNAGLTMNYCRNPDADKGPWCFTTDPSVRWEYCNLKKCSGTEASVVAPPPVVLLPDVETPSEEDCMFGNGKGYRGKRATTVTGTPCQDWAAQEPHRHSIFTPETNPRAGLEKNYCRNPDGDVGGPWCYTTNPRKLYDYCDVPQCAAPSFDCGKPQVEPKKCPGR
# Chain of Plasminogen (P00747 581-810 limits assumed): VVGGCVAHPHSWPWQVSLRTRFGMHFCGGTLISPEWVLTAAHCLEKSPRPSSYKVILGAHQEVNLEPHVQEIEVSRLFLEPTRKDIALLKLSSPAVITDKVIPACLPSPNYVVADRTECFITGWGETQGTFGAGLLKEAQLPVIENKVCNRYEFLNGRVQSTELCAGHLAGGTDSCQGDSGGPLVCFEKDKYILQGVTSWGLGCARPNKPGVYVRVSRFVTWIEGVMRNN
# Chain of Tissue-type plasminogen activator (P00750 whole entry): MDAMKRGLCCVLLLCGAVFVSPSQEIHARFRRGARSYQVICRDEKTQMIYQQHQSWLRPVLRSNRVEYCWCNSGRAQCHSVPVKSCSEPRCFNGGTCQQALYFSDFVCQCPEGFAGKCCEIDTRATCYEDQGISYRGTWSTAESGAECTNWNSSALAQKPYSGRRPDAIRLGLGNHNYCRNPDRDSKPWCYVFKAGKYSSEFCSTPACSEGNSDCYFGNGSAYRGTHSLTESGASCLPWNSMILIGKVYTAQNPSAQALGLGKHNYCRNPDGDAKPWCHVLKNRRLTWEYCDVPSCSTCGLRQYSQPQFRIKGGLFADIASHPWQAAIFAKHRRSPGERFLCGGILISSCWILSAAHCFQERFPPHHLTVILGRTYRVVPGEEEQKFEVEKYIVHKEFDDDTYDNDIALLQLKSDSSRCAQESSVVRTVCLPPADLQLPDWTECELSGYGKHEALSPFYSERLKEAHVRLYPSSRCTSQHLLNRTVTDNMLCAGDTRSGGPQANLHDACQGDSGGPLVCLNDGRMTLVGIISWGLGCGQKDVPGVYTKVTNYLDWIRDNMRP
structure (smiles),measurement,setting,value
COc1cn(Cc2cc(-c3ccc(N)nc3F)ccn2)c(=O)cc1-c1cc(Cl)ccc1-n1cnnn1,Activity,[1],247.3%
same,Activity,[2],Dose-dependent-effect
same,EC1.5,[2]; 0.05 h,0.43 µM
same,IC50,[3],> 1000 nM
same,IC50,[4],> 1000 nM
same,Activity,[5],Non-toxic
same,Activity,[6],Non-toxic
same,Activity,[7],Active
same,Activity,[8],Active; Pronounced Increase Observed Compared To Compound F
same,Activity,[9],Active; Outperformed Asundexian Reducing Thrombus Weight
same,Activity,[10],Non-toxic
same,Activity,[11],Non-toxic
same,Activity,[12],Non-toxic
same,Activity,[13],Non-toxic
same,Activity,[14],Non-toxic
same,Activity,[15],Non-toxic
same,Activity,[16],Active
same,EC1.5,[17],1.6 µM
same,Ratio IC50,[18],> 1000
same,Ratio IC50,[19],> 1000
same,Ratio IC50,[20],> 1000
same,Ratio IC50,[21],> 1000
same,Ratio IC50,[22],> 1000
same,Ratio IC50,[23],> 1000
same,inhibition,[24],Active
same,Activity,[25],Non-toxic
same,Activity,[26],Non-toxic
same,Activity,[27],Non-toxic
same,solubility kinetic at 12 h,[28],122 µg/mL
